Measured values: US11628162B2, “Methods of treating cancer with an FGFR inhibitor” (Incyte Corporation, priority 2019, dated 2023)
“Also recorded” adds a separate entry of the source.

Tests used:
CYP2C9 = CYP2C9 (Homo sapiens, UniProt P11712); test: In vitro metabolism of pemigatinib by recombinant human CYP2C9; assay type: in vitro ADME
Protocol: (§1) In vitro metabolism studies were conducted to determine the human cytochrome P450 (CYP) isozyme(s) capable of metabolizing pemigatinib.
(§2) In vitro metabolism studies were conducted to determine the individual human recombinant CYP isozymes capable of metabolizing pemigatinib (1 μM) and included CYP1A2, CYP2B6, CYP2C8, CYP2C9, CYP2C19, CYP2D6, or CYP3A4.

CYP1A2 = biological target: T1, CYP1A2 (Homo sapiens, UniProt P05177); test: In vitro metabolism of pemigatinib by recombinant human CYP1A2; assay type: in vitro ADME
T1 sequence (P05177 1-516): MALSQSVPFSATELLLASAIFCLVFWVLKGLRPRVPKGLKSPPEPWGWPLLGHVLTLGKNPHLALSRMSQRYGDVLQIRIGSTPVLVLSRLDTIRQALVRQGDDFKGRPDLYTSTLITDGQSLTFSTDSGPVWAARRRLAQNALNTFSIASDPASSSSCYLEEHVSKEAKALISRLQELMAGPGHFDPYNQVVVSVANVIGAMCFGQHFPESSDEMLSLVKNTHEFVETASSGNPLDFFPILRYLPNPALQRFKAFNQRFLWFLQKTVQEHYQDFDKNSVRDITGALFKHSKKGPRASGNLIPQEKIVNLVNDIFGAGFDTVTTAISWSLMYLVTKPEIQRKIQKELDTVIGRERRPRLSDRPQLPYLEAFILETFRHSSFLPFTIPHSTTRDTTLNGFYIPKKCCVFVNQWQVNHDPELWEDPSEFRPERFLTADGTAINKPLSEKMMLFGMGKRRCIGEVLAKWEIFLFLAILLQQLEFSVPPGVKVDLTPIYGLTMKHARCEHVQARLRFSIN
Protocol: as §1, §2

CYP2D6 = CYP2D6 (Homo sapiens, UniProt P10635); test: In vitro metabolism of pemigatinib by recombinant human CYP2D6; assay type: in vitro ADME
CYP2D6, sequence (P10635 whole entry): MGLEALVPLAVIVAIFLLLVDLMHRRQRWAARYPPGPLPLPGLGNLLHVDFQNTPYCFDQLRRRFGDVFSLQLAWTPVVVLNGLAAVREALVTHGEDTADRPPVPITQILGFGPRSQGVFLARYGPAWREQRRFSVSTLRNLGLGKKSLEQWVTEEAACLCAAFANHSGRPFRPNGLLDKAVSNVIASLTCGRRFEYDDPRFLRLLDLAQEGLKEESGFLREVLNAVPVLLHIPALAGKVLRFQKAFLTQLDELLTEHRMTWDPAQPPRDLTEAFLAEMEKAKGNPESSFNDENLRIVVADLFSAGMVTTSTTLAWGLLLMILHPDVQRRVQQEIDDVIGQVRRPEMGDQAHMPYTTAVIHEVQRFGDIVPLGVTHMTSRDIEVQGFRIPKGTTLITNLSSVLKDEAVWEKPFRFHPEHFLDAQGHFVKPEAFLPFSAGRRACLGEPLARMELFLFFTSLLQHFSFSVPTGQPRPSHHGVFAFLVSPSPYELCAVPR
Protocol: as §1, §2

[1] = Phase I dose escalation and dose expansion study, observed PK in cancer patients; assay type: in vivo; conditions: human, plasma, geometric mean; for AUC: read-out: Observed AUCss; for Cmax: read-out: Observed Cmax, ss
Protocol: The pemigatinib PBPK model was developed from healthy volunteer was used to describe cancer patients PK data from phase I dose escalation and dose expansion study (6-20 mg). The model was used to predict pemigatinib plasma concentration-time curves in cancer patients after multiple oral dose of 6, 9, 13.5 and 20 mg pemigatinib because only one patient was dosed for 1, 2 and 4 mg, respectively.

[2] = Phase 1 drug-drug interaction study: single-dose pemigatinib PK alone or with itraconazole or rifampin
CYP2C8 = biological target: T2, CYP2C8 (Homo sapiens, UniProt P10632); test: In vitro metabolism of pemigatinib by recombinant human CYP2C8; assay type: in vitro ADME
T2 sequence (P10632 1-490): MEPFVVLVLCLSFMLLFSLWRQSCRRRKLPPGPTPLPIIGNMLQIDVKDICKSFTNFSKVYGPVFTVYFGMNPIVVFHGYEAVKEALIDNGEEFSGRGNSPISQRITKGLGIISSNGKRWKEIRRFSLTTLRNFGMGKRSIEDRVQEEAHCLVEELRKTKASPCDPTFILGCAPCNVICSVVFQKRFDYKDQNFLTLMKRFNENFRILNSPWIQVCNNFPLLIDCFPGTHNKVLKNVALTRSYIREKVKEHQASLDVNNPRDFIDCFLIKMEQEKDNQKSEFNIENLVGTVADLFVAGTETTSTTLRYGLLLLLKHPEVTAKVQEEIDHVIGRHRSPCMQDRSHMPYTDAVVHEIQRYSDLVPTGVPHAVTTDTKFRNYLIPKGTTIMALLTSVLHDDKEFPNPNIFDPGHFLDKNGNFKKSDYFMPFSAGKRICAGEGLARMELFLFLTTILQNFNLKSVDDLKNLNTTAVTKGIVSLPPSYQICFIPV
Protocol: as §1, §2

[3] = Permeability of pemigatinib (statement, no method given); assay type: in vitro ADME
clinical = conditions: human, plasma
CYP2B6 = biological target: T3, CYP2B6 (Homo sapiens, UniProt P20813); test: In vitro metabolism of pemigatinib by recombinant human CYP2B6; assay type: in vitro ADME
T3 sequence (P20813 1-491): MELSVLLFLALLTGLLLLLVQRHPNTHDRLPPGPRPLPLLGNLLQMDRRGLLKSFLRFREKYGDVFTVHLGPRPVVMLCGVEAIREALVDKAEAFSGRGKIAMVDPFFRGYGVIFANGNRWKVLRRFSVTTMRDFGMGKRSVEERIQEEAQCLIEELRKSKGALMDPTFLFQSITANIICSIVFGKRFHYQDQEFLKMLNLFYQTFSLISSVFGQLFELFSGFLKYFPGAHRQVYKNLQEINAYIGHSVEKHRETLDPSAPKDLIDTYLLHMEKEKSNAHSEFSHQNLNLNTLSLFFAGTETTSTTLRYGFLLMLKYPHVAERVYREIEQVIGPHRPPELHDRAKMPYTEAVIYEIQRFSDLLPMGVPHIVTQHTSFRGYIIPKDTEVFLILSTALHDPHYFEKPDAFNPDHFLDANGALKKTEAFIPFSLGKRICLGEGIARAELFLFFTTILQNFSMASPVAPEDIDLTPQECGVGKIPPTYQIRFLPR
Protocol: as §1, §2

CYP2C19 = CYP2C19 (Homo sapiens, UniProt P33261); test: In vitro metabolism of pemigatinib by recombinant human CYP2C19; assay type: in vitro ADME
CYP2C19, sequence (P33261 whole entry): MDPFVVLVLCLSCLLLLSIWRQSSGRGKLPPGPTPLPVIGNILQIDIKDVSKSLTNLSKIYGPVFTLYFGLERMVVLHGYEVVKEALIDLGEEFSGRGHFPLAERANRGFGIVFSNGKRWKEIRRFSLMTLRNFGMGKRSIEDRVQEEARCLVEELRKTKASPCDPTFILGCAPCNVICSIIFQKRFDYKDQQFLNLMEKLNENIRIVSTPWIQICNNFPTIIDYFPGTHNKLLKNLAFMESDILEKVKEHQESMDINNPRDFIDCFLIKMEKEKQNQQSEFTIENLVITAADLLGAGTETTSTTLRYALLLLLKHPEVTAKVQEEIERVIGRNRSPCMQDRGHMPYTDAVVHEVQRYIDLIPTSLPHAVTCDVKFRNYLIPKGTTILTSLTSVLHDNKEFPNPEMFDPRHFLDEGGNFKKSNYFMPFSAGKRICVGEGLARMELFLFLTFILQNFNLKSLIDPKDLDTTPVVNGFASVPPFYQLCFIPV
Protocol: as §1, §2

[4] = Phase 1 drug-drug interaction study: safety and tolerability (TEAEs)
Protocol: In addition, this study also evaluates the safety and tolerability of pemigatinib when administered alone or in combination with itraconazole or rifampin. Safety and tolerability is assessed by monitoring adverse events, vital signs, physical examinations, 12-lead ECGs, and clinical laboratory blood and urine sample assessments. Pharmacokinetic endpoints include tmax, AUC0-t, AUC0-∞, t1/2, CL/F, and Vz/F.
Vital signs (oral temperature; respiratory rate; automated, seated blood pressure; and pulse) are obtained at screening, check-in, and follow-up; at 0 hour (predose) on Days 1 and 8; and at approximately 1, 2, 3, 6, and 24 hours after the morning dose on Day 4 and Day 9. Clinical safety laboratory assessments are performed at screening; on Days −1, 2, 5, 9, 10, and 11; and at follow-up. A serum pregnancy is obtained at screening and follow-up. A urine pregnancy test is obtained at check-in for each visit for all women. On Day 8, a 12-lead ECG is performed predose, 2 hours postdose, and approximately 24 hours postdose. On other days, 12-lead ECGs are performed only at predose.
Vital signs (oral temperature; respiratory rate; automated, seated blood pressure; and pulse) are obtained at screening, check-in and follow-up; at 0 hour (predose) on Days 1 and 11; and at approximately 1, 2, 3, 6, and 24 hours after the morning dose on Days 4, 10, and 12. Clinical safety laboratory assessments are performed at screening; on Days −1, 2, 8, and 13; and at follow-up. A serum pregnancy test is obtained at screening and follow-up. A urine pregnancy test is obtained at check-in for each visit for all women. On Day 11, a 12-lead ECG is performed predose, 2 hours postdose, and approximately 24 hours postdose. On other days, 12-lead ECGs is performed only at predose.

CYP3A4 = biological target: T4, CYP3A4 (Homo sapiens, UniProt P08684); test: In vitro metabolism of pemigatinib by recombinant human CYP3A4; assay type: in vitro ADME
T4 construct: host or cells: in silico (Simcyp virtual population); observed values come from healthy volunteers
T4 sequence (P08684 whole entry): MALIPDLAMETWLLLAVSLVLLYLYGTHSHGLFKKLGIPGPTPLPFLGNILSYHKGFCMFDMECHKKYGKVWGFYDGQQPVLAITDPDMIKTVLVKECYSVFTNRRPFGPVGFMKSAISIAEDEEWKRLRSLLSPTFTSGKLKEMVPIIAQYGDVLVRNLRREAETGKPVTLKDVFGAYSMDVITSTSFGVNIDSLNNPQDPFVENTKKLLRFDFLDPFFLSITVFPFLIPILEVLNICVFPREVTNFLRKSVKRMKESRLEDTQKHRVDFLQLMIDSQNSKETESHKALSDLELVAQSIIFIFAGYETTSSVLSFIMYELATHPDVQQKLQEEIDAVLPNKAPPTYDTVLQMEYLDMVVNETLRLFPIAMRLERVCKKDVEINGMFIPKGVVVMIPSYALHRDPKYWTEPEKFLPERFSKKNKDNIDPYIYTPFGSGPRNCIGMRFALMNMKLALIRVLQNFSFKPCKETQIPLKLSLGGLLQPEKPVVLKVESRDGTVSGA
Protocol: as §1, §2

[5] = Mass balance and metabolite identification (human ADME) data; assay type: in vivo
human liver microsomes = conditions: 0.5 h, 1 μM, pH 7.4
Protocol: Aliquots were taken at 0, 10, 20, and 30 minutes and denatured with methanol. After centrifugation to remove the denatured proteins, the resulting supernatants were analyzed by LC/MS.

[6] = Cohort 1: 4.5 mg pemigatinib alone or with itraconazole 200 mg QD, geometric mean
[7] = Cohort 1: 4.5 mg pemigatinib alone or with itraconazole 200 mg QD, mean ± SD
[8] = Cohort 2: 13.5 mg pemigatinib alone or with rifampin 600 mg QD, geometric mean
[9] = Cohort 2: 13.5 mg pemigatinib alone or with rifampin 600 mg QD, mean ± SD
[10] = pemigatinib with/without itraconazole, geometric mean
[11] = Cohort 1 (n=18): pemigatinib 4.5 mg alone and with itraconazole

CYP2C9, sequence (P11712 whole entry): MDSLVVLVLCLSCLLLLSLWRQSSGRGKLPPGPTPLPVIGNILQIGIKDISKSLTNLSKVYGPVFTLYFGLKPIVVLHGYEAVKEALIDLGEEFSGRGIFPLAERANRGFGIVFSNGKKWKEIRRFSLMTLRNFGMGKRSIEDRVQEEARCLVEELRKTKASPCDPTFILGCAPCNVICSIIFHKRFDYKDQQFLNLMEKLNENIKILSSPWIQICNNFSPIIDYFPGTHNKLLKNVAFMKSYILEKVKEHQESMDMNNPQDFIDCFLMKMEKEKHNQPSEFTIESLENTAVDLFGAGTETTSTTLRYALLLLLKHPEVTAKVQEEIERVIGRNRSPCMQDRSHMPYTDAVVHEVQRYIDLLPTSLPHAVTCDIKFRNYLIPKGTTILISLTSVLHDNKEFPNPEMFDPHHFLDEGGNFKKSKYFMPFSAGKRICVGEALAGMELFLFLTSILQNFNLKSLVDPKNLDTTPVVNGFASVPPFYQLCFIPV

With `CCN1C(=O)N(c2c(F)c(OC)cc(OC)c2F)Cc2cnc3[nH]c(CN4CCOCC4)cc3c21` [Pemigatinib, 3-(2,6-difluoro-3,5-dimethoxyphenyl)-1-ethyl-8-(morpholin-4-ylmethyl)-1,3,4,7-tetrahydro-2H-pyrrolo[3′,2′: 5,6]pyrido[4,3-d]pyrimidin-2-one] the “Extent of in vitro metabolism by CYP2C9 (in words)” value (CYP2C9) was “negligible”, the “Average Percent (N = 2) of Pemigatinib Remaining vs Control (30 mins)” value (CYP2C9; recombinant CYP2C9, pemigatinib 1 μM, 30 min) was 88% and the “Extent of in vitro metabolism by CYP1A2 (in words)” value (CYP1A2) was “negligible”. The “Average Percent (N = 2) of Pemigatinib Remaining vs Control (30 mins)” value (CYP1A2; recombinant CYP1A2, pemigatinib 1 μM, 30 min) was 92%, the “Extent of in vitro metabolism by CYP2D6 (in words)” value (CYP2D6) was “negligible” and the “Average Percent (N = 2) of Pemigatinib Remaining vs Control (30 mins)” value (CYP2D6; recombinant CYP2D6, pemigatinib 1 μM, 30 min) was 94%. The AUC ([1]; multiple oral dose 6 mg) was 1.11 µM·h, the Cmax ([1]; multiple oral dose 6 mg) was 101 nM and the AUC ([1]; multiple oral dose 9 mg) was 1.51 µM·h. The Cmax ([1]; multiple oral dose 9 mg) was 161 nM, the AUC ([1]; multiple oral dose 13.5 mg) was 2.6 µM·h and the Cmax ([1]; multiple oral dose 13.5 mg) was 175 nM. It also gave an AUC ([1]; multiple oral dose 20 mg) of 4.18 µM·h, a Cmax ([1]; multiple oral dose 20 mg) of 380 nM and an AUC0-t [2, 6] of 0.634 µM·h. The “AUC0-∞” value [2, 6] was 0.672 µM·h, the CL/F [2, 6] was 13.7 L/h and the CL/F [2, 7] was 14.5 ± 4.55 L/h. For the same molecule, the t1/2 [2, 7] was 12.1 ± 2.74 h, the AUC0-t [2, 8] was 1.9 µM·h and the “AUC0-∞” value [2, 8] was 1.96 µM·h. It also gave a CL/F [2, 8] of 14.1 L/h, an AUC0-t [2, 9] of 1.98 ± 0.526 µM·h and a CL/F [2, 9] of 14.8 ± 4.86 L/h. For the same molecule, the t1/2 [2, 9] was 12.9 ± 2.90 h, the Tmax ([2]; Cohort 2: 13.5 mg pemigatinib alone or with rifampin 600 mg QD, median) was 1.0 h and the “Oral clearance of pemigatinib (in words)” value ([2]; in vivo, po) was “low oral clearance”. For the same molecule, the “AUC Ratio, Observed” value [2, 10] was 1.88, the “Cmax Ratio, Observed” value [2, 10] was 1.17 and the Cmax ([2]; read-out: Observed Cmax, single oral 13.5 mg, geometric mean) was 158 nM. The “Extent of in vitro metabolism by CYP2C8 (in words)” value (CYP2C8) was “negligible”, the “Average Percent (N = 2) of Pemigatinib Remaining vs Control (30 mins)” value (CYP2C8; recombinant CYP2C8, pemigatinib 1 μM, 30 min) was 94% and the “Permeability of pemigatinib (in words)” value [3] was “high permeability”. For the same molecule, the AUC0-t (clinical; oral, 4.5 mg) was 0.674 ± 0.246 µM·h, the AUC(0-inf) (clinical; oral, 4.5 mg) was 0.712 ± 0.252 µM·h and the Cmax (clinical; oral, 4.5 mg) was 55.2 nM. The Tmax (clinical; oral, 4.5 mg) was 2 h, the Vd/F (clinical; oral, 4.5 mg) was 244 ± 75.8 L and the half-life (clinical; oral, 4.5 mg) was 11.8 h. The AUC(0-inf) (clinical; oral, 13.5 mg) was 2.04 ± 0.556 µM·h, the Cmax (clinical; oral, 13.5 mg) was 176 nM and the Tmax (clinical; oral, 13.5 mg) was 1.5 h. It also gave a Vd/F (clinical; oral, 13.5 mg) of 267 ± 73.1 L, a half-life (clinical; oral, 13.5 mg) of 12.7 h and an AUC (clinical; po, 4.5 mg) of 0.672 µM·h. For the same molecule, the Cmax (clinical; po, 4.5 mg) was 60.1 ± 25.3 nM, the Cmax (clinical; po, 13.5 mg) was 187 ± 63.3 nM and the “Extent of in vitro metabolism by CYP2B6 (in words)” value (CYP2B6) was “negligible”. The “Average Percent (N = 2) of Pemigatinib Remaining vs Control (30 mins)” value (CYP2B6; recombinant CYP2B6, pemigatinib 1 μM, 30 min) was 96%, the “Extent of in vitro metabolism by CYP2C19 (in words)” value (CYP2C19) was “negligible” and the “Average Percent (N = 2) of Pemigatinib Remaining vs Control (30 mins)” value (CYP2C19; recombinant CYP2C19, pemigatinib 1 μM, 30 min) was 95%. The “Dry mouth TEAE, %” value [4, 11] was “(11.1) %”, the “Dry skin TEAE, %” value [4, 11] was “(11.1) %” and the “Headache TEAE, %” value [4, 11] was “(16.7) %”. The “Nausea TEAE, %” value [4, 11] was “(5.6) %”, the “Paraesthesia TEAE, %” value [4, 11] was “(0) %” and the “Rash papular TEAE, %” value [4, 11] was “(11.1) %”. For the same molecule, the “Somnolence TEAE, %” value [4, 11] was “(11.1) %”, the “Vision blurred TEAE, %” value [4, 11] was “(11.1) %” and the “Most common TEAE” value ([4]; both cohorts) was “headache”. For the same molecule, the “Serious TEAEs or deaths” value ([4]; both cohorts) was “no serious TEAEs or deaths”, the “TEAEs of grade 3 or higher” value ([4]; both cohorts) was “no TEAEs of grade 3 or high” and the “Treatment discontinuations or dose interruptions due to TEAEs” value ([4]; both cohorts) was “no treatment discontinuations or dose interruptions due to TEAEs”. The “Safety and tolerability (overall conclusion)” value ([4]; healthy male and female volunteers) was “safe and generally well tolerated”, the “Extent of in vitro metabolism by CYP3A4 (in words)” value (CYP3A4) was “predominantly metabolized; also recorded: metabolized to the greatest extent” and the “Average Percent (N = 2) of Pemigatinib Remaining vs Control (30 mins)” value (CYP3A4; recombinant CYP3A4, pemigatinib 1 μM, 30 min) was 14%. The “Oral absorption of pemigatinib (in words)” value ([5]; mass balance and metabolite identification data) was “nearly complete”, the “Renal excretion (unchanged pemigatinib excreted in urine)” value ([5]; mass balance data) was ~1.0 % of the dose and the “Unchanged pemigatinib recovered in feces” value ([5]; mass balance data) was 1.3 % of the administered radioactive dose.
For `O=c1c(O)c(-c2ccc(O)c(O)c2)oc2cc(O)cc(O)c12` [Quercetin], the “Mean Percent of Pemigatinib Remaining After 30-Minute Incubation (N = 3)” value (human liver microsomes) was 77 ± 1%.
